Laboratory results: patent US10377770B2 (Novartis AG, priority 2015, dated 2019)

molecular target: C-Raf FL (full length CRAF with Y340E and Y341E activating mutations, co-expressed with h14-3-3 zeta) (Homo sapiens (Human), UniProt P04049, Y340E/Y341E); assay: In vitro Raf activity determination, AlphaScreen p-MEK readout, c-Raf (C-Raf FL); format: biochemical; conditions: c-Raf approximately 4 nM, ATP 1 μM, pre-incubation 60 minutes, reaction 1 hour
From the text: Sf9 cells co-expressing both proteins were lysed and subjected to immobilized nickel chromatography and eluted with Imidazole. A second column (StrepII binding column) was used and eluted with desthiobiotin. Protein Tags were removed using Prescission enzyme and the protein was further purified using a flowthrough step to remove tags.
C-Raf TR refers to a truncated C-Raf protein, a Δ1-324 deletion mutant. C-Raf FL refers to the full-length C-Raf protein.
Full length MEK1 with an inactivating K97R ATP binding site mutation is utilized as a RAF substrate. The MEK1 cDNA was subcloned with an N-terminal (his)6 tag into a vector for E. Coli expression. The MEK1 substrate was purified from E. Coli lysate by nickel affinity chromatography followed by anion exchange. The final MEK1 preparation was biotinylated (Pierce EZ-Link Sulfo-NHS-LC-Biotin) and concentrated.
Assay Materials: Assay buffer is 50 mM Tris, pH 7.5, 15 mM MgCl2, 0.01% Bovine Serum Albumin (BSA) and 1 mM dithiothreitol (DTT); Stop buffer is 60 mM ethylenediaminetetraacetic acid (EDTA) and 0.01% Tween® 20; b-Raf (V600E), active; biotinylated Mek, kinase dead; Alpha Screen detection kit (available from PerkinElmer™, #6760617R); Anti phospho-MEK1/2 (available from Cell Signaling Technology, Inc. #9121); 384 well low volume assay plates (White Greiner® plates).
Assay conditions: b-Raf (V600E) approximately 4 pM; c-Raf approximately 4 nM; biotinylated Mek, kinase dead approximately 10 nM; ATP 10 μM for BRAF (V600E) and 1 μM for CRAF; Pre-incubation time with compounds 60 minutes at room temperature; Reaction time 1 or 3 hours at room temperature.
Assay protocol: Raf and biotinylated Mek (kinase dead) were combined at 2× final concentrations in assay buffer (50 mM Tris, pH 7.5, 15 mM MgCl2, 0.01% BSA and 1 mM DTT) and dispensed […] per well in assay plates (Greiner white 384 well assay plates #781207) containing […] of 40× of a Raf kinase inhibitor test compound diluted in 100% DMSO. The plate was incubated for 60 minutes at room temperature. The Raf kinase activity reaction was started by the addition of […] per well of 2×ATP diluted in assay buffer. After 3 hours (b-Raf(V600E)) or 1 hour (c-Raf). The reactions were stopped and the phosphorylated product was measured using a rabbit anti-p-MEK (Cell Signaling, #9121) antibody and the Alpha Screen IgG (ProteinA) detection Kit (PerkinElmer #6760617R), by the addition of […] to the well of a mixture of the antibody (1:2000 dilution) and detection beads (1:2000 dilution of both beads) in Stop/bead buffer (25 mM EDTA, 50 mM Tris, pH 7.5, 0.01% Tween20). The additions were carried out under dark conditions to protect the detection beads from light. A lid was placed on top of the plate and incubated for 1 hour at room temperature, after which the luminescence was read on a PerkinElmer Envision instrument.

Sequence of C-Raf FL (full length CRAF with Y340E and Y341E activating mutations, co-expressed with h14-3-3 zeta) (P04049 whole entry Y340E/Y341E): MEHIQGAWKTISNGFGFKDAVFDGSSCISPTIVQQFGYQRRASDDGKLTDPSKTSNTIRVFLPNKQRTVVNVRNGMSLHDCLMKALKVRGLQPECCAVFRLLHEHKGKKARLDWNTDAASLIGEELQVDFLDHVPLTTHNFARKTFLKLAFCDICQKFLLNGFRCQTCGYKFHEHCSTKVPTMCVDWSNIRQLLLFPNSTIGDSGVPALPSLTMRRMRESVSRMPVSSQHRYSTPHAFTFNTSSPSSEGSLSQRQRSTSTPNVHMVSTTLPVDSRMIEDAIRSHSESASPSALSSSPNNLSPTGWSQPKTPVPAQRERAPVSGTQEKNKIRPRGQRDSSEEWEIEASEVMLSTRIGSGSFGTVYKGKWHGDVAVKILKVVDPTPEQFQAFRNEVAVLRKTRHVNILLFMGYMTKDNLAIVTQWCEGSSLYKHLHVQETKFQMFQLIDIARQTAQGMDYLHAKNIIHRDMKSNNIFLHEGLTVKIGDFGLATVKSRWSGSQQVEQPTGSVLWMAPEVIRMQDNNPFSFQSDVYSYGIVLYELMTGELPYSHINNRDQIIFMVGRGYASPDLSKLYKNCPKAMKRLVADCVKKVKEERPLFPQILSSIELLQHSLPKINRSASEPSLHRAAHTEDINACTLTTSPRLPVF
Sequence of C-Raf FL (full length CRAF with Y340E and Y341E activating mutations, co-expressed with h14-3-3 zeta) (P63104 whole entry partner): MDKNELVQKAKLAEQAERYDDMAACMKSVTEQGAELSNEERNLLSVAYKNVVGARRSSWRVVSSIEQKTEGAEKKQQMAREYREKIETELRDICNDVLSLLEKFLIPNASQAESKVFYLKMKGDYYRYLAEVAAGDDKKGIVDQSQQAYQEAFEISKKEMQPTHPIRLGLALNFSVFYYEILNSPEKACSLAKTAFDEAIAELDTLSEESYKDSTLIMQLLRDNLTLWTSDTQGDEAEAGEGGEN

| Structure (SMILES) | IC50 [nM] |
| --- | --- |
| Cc1ccc(NC(=O)c2ccnc(C(C)(F)F)c2)cc1-c1cnc2c(c1)N1CCOC[C@H]1C[C@@]2(C)O (racemic) [Example 41, (rac)-(trans)-2-(1,1-difluoroethyl)-N-(3-(6-hydroxy-6-methyl-1,2,4,4a,5,6-hexahydro-[1,4]oxazino[4,3-a][1,5]naphthyridin-9-yl)-4-methylphenyl)isonicotinamide] | 0.0099 |
| Cc1ccc(NC(=O)c2ccnc(C(C)(F)F)c2)cc1-c1cnc2c(c1)N1CCOC[C@H]1C[C@]2(C)O (racemic) [Example 42, (rac)-(cis)-2-(1,1-difluoroethyl)-N-(3-(6-hydroxy-6-methyl-1,2,4,4a,5,6-hexahydro-[1,4]oxazino[4,3-a][1,5]naphthyridin-9-yl)-4-methylphenyl)isonicotinamide] | 0.015 |
| Cc1ncc(NC(=O)c2cccc(C(F)(F)F)c2)cc1-c1cnc2c(c1)N1CCOC[C@H]1C[C@@]2(C)O (racemic) [Example 43, (rac)-(trans)-N-(5-(6-hydroxy-6-methyl-1,2,4,4a,5,6-hexahydro-[1,4]oxazino[4,3-a][1,5]naphthyridin-9-yl)-6-methylpyridin-3-yl)-3-(trifluoromethyl)benzamide] | 0.0082 |
| Cc1ncc(NC(=O)c2cccc(C(F)(F)F)c2)cc1-c1cnc2c(c1)N1CCOC[C@H]1C[C@]2(C)O (racemic) [Example 44, (rac)-(cis)-N-(5-(6-hydroxy-6-methyl-1,2,4,4a,5,6-hexahydro-[1,4]oxazino[4,3-a][1,5]naphthyridin-9-yl)-6-methylpyridin-3-yl)-3-(trifluoromethyl)benzamide] | 0.037 |
| Cc1ccc(NC(=O)c2ccnc(C(F)(F)F)c2)cc1-c1ccc2c(c1)N1CCOCC1c1cn(C)nc1-2 (racemic) [Example 45, (rac)-N-(4-methyl-3-(2-methyl-3b,4,6,7-tetrahydro-2H-[1,4]oxazino[4,3-a]pyrazolo[4,3-c]quinolin-10-yl)phenyl)-2-(trifluoromethyl)isonicotinamide] | 0.17 |
| Cc1ccc(NC(=O)c2ccnc(C(C)(F)F)c2)cc1-c1cc2c(nn1)[C@H](O)C[C@@H]1COCCN21 (racemic) [Example 46, (rac)(trans)-2-(1,1-difluoroethyl)-N-(3-(5-hydroxy-5,6,6a,7,9,10-hexahydropyridazino[3′,4′:5,6]pyrido[2,1-c][1,4]oxazin-2-yl)-4-methylphenyl)isonicotinamide] | 0.014 |
| Cc1ncc(NC(=O)c2cccc(C(F)(F)F)c2)cc1-c1cc2c(nn1)[C@H](O)C[C@@H]1COCCN21 (racemic) [Example 47, (rac)-(trans)-N-(5-(5-hydroxy-5,6,6a,7,9,10-hexahydropyridazino[3′,4′:5,6]pyrido[2,1-c][1,4]oxazin-2-yl)-6-methylpyridin-3-yl)-3-(trifluoromethyl)benzamide] | 0.073 |
| Cc1ccc(NC(=O)c2ccnc(C(F)(F)F)c2)cc1-c1cc2c(nn1)[C@H](O)C[C@@H]1COCCN21 (racemic) [Example 48, (rac)-(trans)-N-(3-(5-hydroxy-5,6,6a,7,9,10-hexahydropyridazino[3′,4′:5,6]pyrido[2,1-c][1,4]oxazin-2-yl)-4-methylphenyl)-2-(trifluoromethyl)isonicotinamide] | 0.049 |
| Cc1ccc(NC(=O)c2ccnc(C(F)(F)F)c2)cc1-c1ccc2c(c1)N1CCOCC1C(CO)(CO)C2 (racemic) [Example 49, (rac)-N-(3-(5,5-bis(hydroxymethyl)-1,2,4,4a,5,6-hexahydro-[1,4]oxazino[4,3-a]quinolin-9-yl)-4-methylphenyl)-2-(trifluoromethyl)isonicotinamide] | 0.021 |
| Cc1ccc(NC(=O)c2ccnc(C(C)(F)F)c2)cc1-c1ccc2c(c1)N1CCOCC1C(CO)(CO)C2 (racemic) [Example 50, (rac)-N-(3-(5,5-bis(hydroxymethyl)-1,2,4,4a,5,6-hexahydro-[1,4]oxazino[4,3-a]quinolin-9-yl)-4-methylphenyl)-2-(1,1-difluoroethyl)isonicotinamide] | 0.013 |
| Cc1ncc(NC(=O)c2cccc(C(F)(F)F)c2)cc1-c1ccc2c(c1)N1CCOCC1C(CO)(CO)C2 (racemic) [Example 51, (rac)-N-(5-(5,5-bis(hydroxymethyl)-1,2,4,4a,5,6-hexahydro-[1,4]oxazino[4,3-a]quinolin-9-yl)-6-methylpyridin-3-yl)-3-(trifluoromethyl)benzamide] | 0.036 |
| Cc1ccc(NC(=O)c2ccnc(C(F)(F)F)c2)cc1-c1ccc2c(c1)N1CCOCC1C1(COC1)C2 (racemic) [Example 54, (rac)-N-(4-methyl-3-(2,4,4a,6-tetrahydro-1H-spiro[[1,4]oxazino[4,3-a]quinoline-5,3′-oxetan]-9-yl)phenyl)-2-(trifluoromethyl)isonicotinamide] | 0.013 |
| Cc1ccc(NC(=O)c2ccnc(C(C)(F)F)c2)cc1-c1ccc2c(c1)N1CCOCC1C1(COC1)C2 (racemic) [Example 55, (rac)-2-(1,1-difluoroethyl)-N-(4-methyl-3-(2,4,4a,6-tetrahydro-1H-spiro[[1,4]oxazino[4,3-a]quinoline-5,3′-oxetan]-9-yl)phenyl)isonicotinamide] | 0.022 |
| Cc1ncc(NC(=O)c2cccc(C(F)(F)F)c2)cc1-c1ccc2c(c1)N1CCOCC1C1(COC1)C2 (racemic) [Example 56, (rac)-N-(6-methyl-5-(2,4,4a,6-tetrahydro-1H-spiro[[1,4]oxazino[4,3-a]quinoline-5,3′-oxetan]-9-yl)pyridin-3-yl)-3-(trifluoromethyl)benzamide] | 0.071 |
| Cc1ccc(NC(=O)c2ccnc(C(F)(F)F)c2)cc1-c1ccc2c(c1)N1CCOCC1C(CO)C2 (racemic) [Example 59, (rac)-N-(3-(5-(hydroxymethyl)-1,2,4,4a,5,6-hexahydro-[1,4]oxazino[4,3-a]quinolin-9-yl)-4-methylphenyl)-2-(trifluoromethyl)isonicotinamide] | 0.0089 |
| Cc1ccc(NC(=O)c2ccnc(C(C)(F)F)c2)cc1-c1ccc2c(c1)N1CCOCC1C(CO)C2 (racemic) [Example 60, (rac)-2-(1,1-difluoroethyl)-N-(3-(5-(hydroxymethyl)-1,2,4,4a,5,6-hexahydro-[1,4]oxazino[4,3-a]quinolin-9-yl)-4-methylphenyl)isonicotinamide] | 0.019 |
| Cc1ncc(NC(=O)c2cccc(C(F)(F)F)c2)cc1-c1ccc2c(c1)N1CCOCC1C(CO)C2 (racemic) [Example 61, (rac)-N-(5-(5-(hydroxymethyl)-1,2,4,4a,5,6-hexahydro-[1,4]oxazino[4,3-a]quinolin-9-yl)-6-methylpyridin-3-yl)-3-(trifluoromethyl)benzamide] | 0.033 |
| CNC(=O)C1Cc2ccc(-c3cc(NC(=O)c4ccnc(C(F)(F)F)c4)ccc3C)cc2N2CCOCC12 (racemic) [Example 66, (rac)-N-methyl-9-(2-methyl-5-(2-(trifluoromethyl)isonicotinamido)phenyl)-1,2,4,4a,5,6-hexahydro-[1,4]oxazino[4,3-a]quinoline-5-carboxamide] | 0.11 |
| CNC(=O)C1Cc2ccc(-c3cc(NC(=O)c4ccnc(C(C)(F)F)c4)ccc3C)cc2N2CCOCC12 (racemic) [Example 67, (rac)-9-(5-(2-(1,1-difluoroethyl)isonicotinamido)-2-methylphenyl)-N-methyl-1,2,4,4a,5,6-hexahydro-[1,4]oxazino[4,3-a]quinoline-5-carboxamide] | 0.13 |
